Here are results for 13 compounds from patent publication US6727270B2, “Pyrrolylalkylidene-hydrazinecarboximidamide derivatives as 5-hydroxytryptamine-6 ligands” (Wyeth, priority 2002, dated 2004).

Structures can show the parent of a compound that is named as a salt.

System in one series: not given
Assay: not given
Conditions: not given
In the case of `C/C(=N\NC(=N)N)c1ccn(S(=O)(=O)c2ccccc2)c1` (as salt: hydrochloride) [Example 14, 2-{(E)-1-[1-(phenylsulfonyl)-1H-pyrrol-3-yl]ethylidene}hydrazinecarboximidamide], the melting point was in the range of 220 to 221 °C. For the compound `C/C(=N\NC(=N)N)c1ccn(S(=O)(=O)c2ccc(C)cc2)c1` (as salt: hydrochloride) [Example 15, 2-{(E)-1-[1-(4-methylphenylsulfonyl)-1H-pyrrol-3-yl]ethylidene}hydrazine-carboximidamide], the melting point fell in the range of 277 to 279 °C.

On to `C/C(=N\NC(=N)N)c1ccn(S(=O)(=O)c2sc3ccc(Cl)cc3c2C)c1` (as salt: hydrochloride) [Example 17], for which the melting point was 285 °C (dec.). The compound `C/C(=N\NC(=N)N)c1ccn(S(=O)(=O)c2ccc(N)cc2)c1` (as salt: hydrochloride) [Example 18, 2-((E)-1-{1-[(4-aminophenyl)sulfonyl]-1H-pyrrol-3-yl}ethylidene)-1-hydrazine-carboximidamide] returned a melting point of 198 to 200 °C.

With `C/C(=N\NC(=N)N)c1ccn(S(=O)(=O)c2sc(N)nc2C)c1` (as salt: hydrochloride) [Example 19, 2-((E)-1-{1-[(2-amino-4-methyl-1,3-thiazol-5-yl)sulfonyl]-1H-pyrrol-3-yl}ethylidene)-1-hydrazinecarboximidamide], the melting point is 225 °C (dec.).

In the next series the target is T1, human cloned 5-HT6 receptors (Homo sapiens, UniProt P50406).
T1 construct: expressed in transfected cells; host or cells: Hela cells
T1 sequence (P50406 whole entry): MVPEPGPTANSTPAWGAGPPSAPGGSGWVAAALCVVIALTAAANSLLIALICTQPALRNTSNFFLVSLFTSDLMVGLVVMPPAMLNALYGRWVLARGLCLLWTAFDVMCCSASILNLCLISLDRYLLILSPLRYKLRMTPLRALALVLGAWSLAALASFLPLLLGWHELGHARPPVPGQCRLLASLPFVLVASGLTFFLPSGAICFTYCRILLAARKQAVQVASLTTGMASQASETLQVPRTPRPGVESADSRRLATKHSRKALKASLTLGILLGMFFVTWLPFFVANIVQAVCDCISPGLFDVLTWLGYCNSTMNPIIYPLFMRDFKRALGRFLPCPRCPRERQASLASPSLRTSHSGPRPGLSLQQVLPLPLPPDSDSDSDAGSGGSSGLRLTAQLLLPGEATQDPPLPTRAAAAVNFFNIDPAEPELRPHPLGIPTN
The series can be described thus: 5-HT6 binding affinity, [3H]-LSD displacement on membranes of Hela cells expressing human cloned 5-HT6 receptors. The settings on record: [3H]-LSD 3.0 nM, Hela cell membranes, 120 min at room temperature. Here is the method: Comparative Evaluation of 5-HT6 Binding Affinity of Test Compounds
The affinity of test compounds for the serotonin 5-HT6 receptor is evaluated in the following manner. Cultured Hela cells expressing human cloned 5-HT6 receptors are harvested and centrifuged at low speed (1,000×g) for 10.0 min to remove the culture media. The harvested cells are suspended in half volume of fresh physiological phosphate buffered saline solution and recentrifuged at the same speed. This operation is repeated. The collected cells are then homogenized in ten volumes of 50 mM Tris.HCl (pH 7.4) and 0.5 mM EDTA. The homogenate is centrifuged at 40,000×g for 30.0 min and the precipitate is collected. The obtained pellet is resuspended in 10 volumes of Tris.HCl buffer and recentrifuged at the same speed. The final pellet is suspended in a small volume of Tris.HCl buffer and the tissue protein content is determined in aliquots of 10-25 μl volumes. Bovine Serum Albumin is used as the standard in the protein determination according to the method described in Lowry et al., J. Biol. Chem., 193:265 (1951). The volume of the suspended cell membranes is adjusted to give a tissue protein concentration of 1.0 mg/ml of suspension. The prepared membrane suspension (10 times concentrated) is aliquoted in 1.0 ml volumes and stored at −70° C. until used in subsequent binding experiments.
The reaction is allowed to proceed in the dark for 120 min at room temperature, at which time, the bound ligand-receptor complex is filtered off on a 96 well unifilter with a Packard Filtermate® 196 Harvester. The bound complex caught on the filter disk is allowed to air dry and the radioactivity is measured in a Packard TopCount® equipped with six photomultiplier detectors, after the addition of 40.0 μl Microscint®-20 scintillant to each shallow well. The unifilter plate is heat-sealed and counted in a PackardTopCount® with a tritium efficiency of 31.0%.
Binding in the presence of varying concentrations of test compound is expressed as a percentage of specific binding in the absence of test compound. The results are plotted as log % bound versus log concentration of test compound. […] A linear regression line of data points is plotted, from which the IC50 value is determined and the Ki value is determined based upon the following equation: […]
where L is the concentration of the radioactive ligand used and KD is the dissociation constant of the ligand for the receptor, both expressed in nM.
“2-{(E)-1-[1-(naphthylsulfonyl)-1H-pyrrol-3-yl]ethylidene}-1-hydrazine-carboximidamide [Example 16]”: the affinity corresponds to a Ki of 2 nM. The compound `N=C(N)N/N=C1\CCCc2c1ccn2S(=O)(=O)c1ccccc1` [Example 7, 2-[1-(Phenylsulfonyl)-1,5,6,7-tetrahydro-4H-indol-4-ylidine]-1-hydrazinecarboximidamide Hydrochloride] showed a Ki of 37 nM.

`C/C(=N\NC(=N)N)c1c(C)cn(S(=O)(=O)c2ccccc2)c1C` [Example 13, 2-{(E)-1-[2,4-Dimethyl-1-(phenylsulfonyl)-1H-pyrrol-3-yl]ethylidine} hydrazinecarboximidamide Hydrochloride]: affinity was put at a Ki of 6 nM. `C/C(=N\NC(=N)N)c1ccn(S(=O)(=O)c2ccccc2)c1` [Example 14, 2-{(E)-1-[1-(phenylsulfonyl)-1H-pyrrol-3-yl]ethylidene}hydrazinecarboximidamide]: the Ki was determined as 1.5 nM.

Consider `C/C(=N\NC(=N)N)c1ccn(S(=O)(=O)c2ccc(C)cc2)c1` [Example 15, 2-{(E)-1-[1-(4-methylphenylsulfonyl)-1H-pyrrol-3-yl]ethylidene}hydrazine-carboximidamide], for which the affinity corresponds to a Ki of 5.5 nM. As for `C/C(=N\NC(=N)N)c1ccn(S(=O)(=O)c2sc3ccc(Cl)cc3c2C)c1` [Example 17], the Ki was found to be 32 nM. `C/C(=N\NC(=N)N)c1ccn(S(=O)(=O)c2ccc(N)cc2)c1` [Example 18, 2-((E)-1-{1-[(4-aminophenyl)sulfonyl]-1H-pyrrol-3-yl}ethylidene)-1-hydrazine-carboximidamide]: the Ki was 0.6 nM.

`C/C(=N\NC(=N)N)c1ccn(S(=O)(=O)c2sc(N)nc2C)c1` [Example 19, 2-((E)-1-{1-[(2-amino-4-methyl-1,3-thiazol-5-yl)sulfonyl]-1H-pyrrol-3-yl}ethylidene)-1-hydrazinecarboximidamide] showed a Ki of 3.75 nM.

In general, melting point refers to the temperature, or range, at which the solid turns liquid. For orientation: Ki means a measure of affinity in units of concentration, obtained from inhibition or displacement.
